Source: patent US8012970B2, “Derivatives of 1-{[1,5-bis(4-chlorophenyl)-2-methyl-1H-pyrrol-3-yl]methyl}-4-methylpiperazine, synthesis process and uses thereof” (priority 2005, dated 2011)
Converted amounts (≈) assume the structure as drawn. Like-named read-outs stand apart in the source and are kept apart here.

How the values were obtained:
Assay type in all cases: cell-based
[1] = tested on: M. smegmatis 103599; assay: Antimycobacterial activity toward atypical mycobacteria, MIC in broth
[2] = tested on: M. avium 103317; assay: as above
[3] = tested on: M. marinum 6423; assay: as above
[4] = tested on: VERO cells; assay: Cytotoxicity on Vero cell monolayers (MNTD50); details: maximum 50% non-toxic dose, 5 days
Method: The cytotoxicity was evaluated on Vero cell monolayers (ICN-Flow). They were inoculated in 6-well plates each containing 9×10^4 cells and incubated in DMEM with 5% FCS for 24 h at 37° C. in a 5% CO2 incubator. After 24 h of culture, the medium was changed and a new medium containing decreasing doses of the substances under study was added.
After 5 days, the cells were trypsinized and counted in a Neubauer chamber under a light microscope. All the tests were done in triplicate. The maximum 50% non-toxic dose (MNTD50) was defined as the drug concentration that decreased cell multiplication less than 50% with respect to the control.

[5] = tested on: M. tuberculosis 103471; assay: Antimycobacterial activity, MIC in Middlebrook 7H9 broth (NCCLS procedure); details: for M. tuberculosis 103471 MIC: extracellular M. tuberculosis 103471; for MIC: Mycobacterium tuberculosis, 103471, read-out: M. tuberculosis 103471 MIC (μg/mL)
[6] = tested on: intracellular M. tuberculosis; assay: Inhibitory activity on intramacrophagic mycobacteria in U937 cells differentiated into macrophages; details: Mycobacterium tuberculosis, read-out: MIC (μg/mL) Inhibition of intramacrophagic mycobacteria
Method: Inhibitory Activity of 6e and 7c on Intramacrophagic Mycobacteria.
The bactericidal activity of such compounds on intracellular mycobacteria was studied on U937 cells (INC-FLOW), a human hystiocytic cell line. Cells were differentiated into macrophages with 20 ng/mL of phorbol myristate acetate (PMA, Sigma) and grown in RPMI 1640 medium with 10% fetal calf serum.

[7] = Mycolicibacterium smegmatis, 103599; read-out: MIC (μg/mL) M. smegmatis 103599
[8] = Mycobacterium avium, 103317; read-out: MIC (μg/mL) M. avium 103317
[9] = Mycobacterium marinum, 6423; read-out: MIC (μg/mL) M. marinum 6423

Structure (SMILES) | MIC (μg/mL) M. smegmatis 103599 [1] | MIC (μg/mL) M. avium 103317 [2] | MIC (μg/mL) M. marinum 6423 [3] | MNTD50 (μg/mL) VERO cells [4] | M. tuberculosis 103471 MIC [5] | MIC [1, 7] | MIC [2, 8] | MIC [3, 9] | MIC [5] | MIC [6] | MIC ([1]; Mycolicibacterium smegmatis, 103599, read-out: MIC (μg/mL) M. smegmatis 103599) | MIC ([2]; Mycobacterium avium, 103317, read-out: MIC (μg/mL) M. avium 103317) | MIC ([3]; Mycobacterium marinum, 6423, read-out: MIC (μg/mL) M. marinum 6423)
Cc1c(CN2CCN(C)CC2)cc(-c2ccc(F)cc2)n1-c1ccc(Cl)cc1Cl [Compound 7h] | >16 µg/mL | 4 µg/mL (≈ 9.25 µM) | 8 µg/mL (≈ 18.5 µM) | 2 µg/mL | 4 µg/mL | – | – | – | – | – | – | – | –
Cc1c(CN2CCSCC2)cc(-c2cccc3ccccc23)n1-c1ccc(F)cc1 [Compound 6k] | >16 µg/mL | >16 µg/mL | >16 µg/mL | >128 µg/mL | >16 µg/mL | – | – | – | – | – | – | – | –
Cc1ccc(-c2cc(CN3CCN(C)CC3)c(C)n2-c2ccc(F)cc2)cc1 [Compound 6f] | 8 µg/mL (≈ 21.2 µM) | 4 µg/mL (≈ 10.6 µM) | >16 µg/mL | 8 µg/mL | 4 µg/mL | – | – | – | – | – | – | – | –
Cc1c(CN2CCN(C)CC2)cc(-c2ccc(F)cc2)n1-c1ccccc1F [Compound 7d] | 0.3 µg/mL (≈ 0.786 µM) | 16 µg/mL (≈ 41.9 µM) | >16 µg/mL | 8 µg/mL | 8 µg/mL | – | – | – | – | – | – | – | –
Cc1ccc(-n2c(-c3ccc(F)cc3)cc(CN3CCN(C)CC3)c2C)cc1 [Compound 7f] | >16 µg/mL | 16 µg/mL (≈ 42.4 µM) | 8 µg/mL (≈ 21.2 µM) | 8 µg/mL | 16 µg/mL | – | – | – | – | – | – | – | –
Cc1c(CN2CCN(C)CC2)cc(-c2ccc(F)cc2)n1-c1ccccc1Cl [Compound 7b] | >16 µg/mL | >16 µg/mL | >16 µg/mL | 8 µg/mL | 4 µg/mL | – | – | – | – | – | – | – | –
Cc1c(CN2CCSCC2)cc(-c2ccc(F)cc2F)n1-c1ccc(F)cc1 [Compound 6i] | >16 µg/mL | 16 µg/mL (≈ 39.8 µM) | 16 µg/mL (≈ 39.8 µM) | 16 µg/mL | 0.5 µg/mL | – | – | – | – | – | – | – | –
Cc1c(CN2CCN(C)CC2)cc(-c2ccc(Cl)cc2)n1-c1ccc(Cl)cc1 [BM212, 1-{[1,5-bis(4-chlorophenyl)-2-methyl-1H-pyrrol-3-yl]methyl}-4-methylpiperazine] | – | – | – | 4 µg/mL | – | 25 µg/mL (≈ 60.3 µM) | 0.4 µg/mL (≈ 0.965 µM) | 100 µg/mL (≈ 241 µM) | 0.7 µg/mL (≈ 1.69 µM) | – | – | – | –
Cc1c(CN2CCSCC2)cc(-c2ccc(F)cc2)n1-c1ccccc1Cl [Compound 7a] | >16 µg/mL | >16 µg/mL | >16 µg/mL | 8 µg/mL | 2 µg/mL | – | – | – | – | – | – | – | –
Cc1c(CN2CCN(C)CC2)cc(-c2ccccc2F)n1-c1ccc(F)cc1 [Compound 6d] | >16 µg/mL | >16 µg/mL | >16 µg/mL | 4 µg/mL | 16 µg/mL | – | – | – | – | – | – | – | –
Cc1c(CN2CCN(C)CC2)cc(-c2ccc(F)cc2)n1-c1ccc(F)cc1F [Compound 7j] | >16 µg/mL | 16 µg/mL (≈ 40.1 µM) | 16 µg/mL (≈ 40.1 µM) | 16 µg/mL | 16 µg/mL | – | – | – | – | – | – | – | –
Cc1c(CN2CCN(C)CC2)cc(-c2ccccc2Cl)n1-c1ccc(F)cc1 [Compound 6b] | >16 µg/mL | 16 µg/mL (≈ 40.2 µM) | >16 µg/mL | 2 µg/mL | 8 µg/mL | – | – | – | – | – | – | – | –
Cc1c(CN2CCSCC2)cc(-c2ccc(F)cc2)n1-c1ccc(F)cc1F [Compound 7i] | >16 µg/mL | 16 µg/mL (≈ 39.8 µM) | 16 µg/mL (≈ 39.8 µM) | 16 µg/mL | 2 µg/mL | – | – | – | – | – | – | – | –
Cc1c(CN2CCSCC2)cc(-c2ccccc2Cl)n1-c1ccc(F)cc1 [Compound 6a] | >16 µg/mL | 16 µg/mL (≈ 39.9 µM) | >16 µg/mL | 4 µg/mL | 4 µg/mL | – | – | – | – | – | – | – | –
Cc1ccc(-n2c(-c3ccc(F)cc3)cc(CN3CCSCC3)c2C)cc1 [Compound 7e] | 16 µg/mL (≈ 42 µM) | 8 µg/mL (≈ 21 µM) | 8 µg/mL (≈ 21 µM) | 8 µg/mL | 4 µg/mL | – | – | – | – | – | – | – | –
CO[C@H]1/C=C/O[C@@]2(C)Oc3c(C)c(O)c4c(O)c(c(/C=N/N5CCN(C)CC5)c(O)c4c3C2=O)NC(=O)/C(C)=C\C=C\[C@H](C)[C@H](O)[C@@H](C)[C@@H](O)[C@@H](C)[C@H](OC(C)=O)[C@@H]1C [Rifampin, reference compound] | – | – | – | 64 µg/mL | 0.3 µg/mL | 32 µg/mL (≈ 38.9 µM) | 0.3 µg/mL (≈ 0.365 µM) | 0.6 µg/mL (≈ 0.729 µM) | 0.3 µg/mL (≈ 0.365 µM) | 3 µg/mL (≈ 3.65 µM) | – | – | –
NNC(=O)c1ccncc1 [Isoniazid, reference compound] | – | – | – | 32 µg/mL | – | – | – | – | 0.25 µg/mL (≈ 1.82 µM) | – | 64 µg/mL (≈ 467 µM) | 32 µg/mL (≈ 233 µM) | 16 µg/mL (≈ 117 µM)
Cc1c(CN2CCN(C)CC2)cc(-c2ccc(F)cc2F)n1-c1ccc(F)cc1 [Compound 6j] | >16 µg/mL | 16 µg/mL (≈ 40.1 µM) | >16 µg/mL | 8 µg/mL | 4 µg/mL | – | – | – | – | – | – | – | –
Cc1c(CN2CCSCC2)cc(-c2ccc(Cl)cc2Cl)n1-c1ccc(F)cc1 [Compound 6g] | >16 µg/mL | 4 µg/mL (≈ 9.19 µM) | >16 µg/mL | 64 µg/mL | 2 µg/mL | – | – | – | – | – | – | – | –
Cc1c(CN2CCSCC2)cc(-c2ccc(F)cc2)n1-c1cccc2ccccc12 [Compound 7k] | >16 µg/mL | 8 µg/mL (≈ 19.2 µM) | 16 µg/mL (≈ 38.4 µM) | 2 µg/mL | 4 µg/mL | – | – | – | – | – | – | – | –
Cc1c(CN2CCSCC2)cc(-c2ccccc2F)n1-c1ccc(F)cc1 [Compound 6c] | >16 µg/mL | 16 µg/mL (≈ 41.6 µM) | >16 µg/mL | 16 µg/mL | 0.5 µg/mL | – | – | – | – | – | – | – | –
Cc1c(CN2CCN(C)CC2)cc(-c2cccc3ccccc23)n1-c1ccc(F)cc1 [Compound 6l] | >16 µg/mL | 8 µg/mL (≈ 19.3 µM) | 16 µg/mL (≈ 38.7 µM) | 4 µg/mL | 16 µg/mL | – | – | – | – | – | – | – | –
Cc1c(CN2CCSCC2)cc(-c2ccc(F)cc2)n1-c1ccc(Cl)cc1Cl [Compound 7g] | 16 µg/mL (≈ 36.7 µM) | 2 µg/mL (≈ 4.59 µM) | 8 µg/mL (≈ 18.4 µM) | 4 µg/mL | 1 µg/mL | – | – | – | – | – | – | – | –
[H]/N=C(/N)N[C@H]1[C@H](O)[C@@H](O)[C@H](O[C@@H]2O[C@@H](C)[C@](O)(C=O)[C@H]2O[C@@H]2O[C@@H](CO)[C@H](O)[C@@H](O)[C@@H]2NC)[C@@H](N/C(N)=N\[H])[C@@H]1O [Streptomycin, reference compound] | – | – | – | >64 µg/mL | – | 8 µg/mL (≈ 13.8 µM) | 8 µg/mL (≈ 13.8 µM) | 32 µg/mL (≈ 55 µM) | 0.5 µg/mL (≈ 0.86 µM) | – | – | – | –
Cc1ccc(-c2cc(CN3CCSCC3)c(C)n2-c2ccc(F)cc2)cc1 [Compound 6e, N-(p-fluorophenyl)-2-methyl-3-thiomorpholinomethyl-5-(p-methylphenyl)pyrrole] | – | – | – | 64 µg/mL | – | 16 µg/mL (≈ 42 µM) | 8 µg/mL (≈ 21 µM) | 8 µg/mL (≈ 21 µM) | 0.4 µg/mL (≈ 1.05 µM) | 3 µg/mL (≈ 7.88 µM) | – | – | –
Cc1c(CN2CCN(C)CC2)cc(-c2ccc(F)cc2)n1-c1cccc2ccccc12 [Compound 7l] | >16 µg/mL | 8 µg/mL (≈ 19.3 µM) | 8 µg/mL (≈ 19.3 µM) | 4 µg/mL | 4 µg/mL | – | – | – | – | – | – | – | –
Cc1c(CN2CCSCC2)cc(-c2ccc(F)cc2)n1-c1ccccc1F [Compound 7c, N-(o-fluorophenyl)-2-methyl-3-thiomorpholinomethyl-5-(p-fluorophenyl)pyrrole] | – | – | – | 8 µg/mL | – | 8 µg/mL (≈ 20.8 µM) | 8 µg/mL (≈ 20.8 µM) | > 16 µg/mL | 0.5 µg/mL (≈ 1.3 µM) | 3 µg/mL (≈ 7.8 µM) | – | – | –
Cc1c(CN2CCN(C)CC2)cc(-c2ccc(Cl)cc2Cl)n1-c1ccc(F)cc1 [Compound 6h] | >16 µg/mL | 2 µg/mL (≈ 4.63 µM) | >16 µg/mL | 16 µg/mL | 8 µg/mL | – | – | – | – | – | – | – | –
